This passage reports inhibition results from patent US8604049B2, “4-dimethylamino-phenyl-substituted naphthyridines, and use thereof as medicaments” (Boehringer Ingelheim International GmbH, priority 2008, dated 2013).

Read-outs that look alike come from different tables or passages of the source.

The test concerns the target T1, Recombinant human Syk (GST-Syk kinase fusion protein) (Homo sapiens, UniProt P43405).
T1 construct: made in house
Put plainly: Syk Kinase Test (Kinase Glo luminescence). Format: biochemical. Conditions: read-out: SYK inh % at 1 μM. The method, then: The catalytic activity of the GST-Syk kinase fusion protein was determined using the Kinase Glo® Luminescence Kinase test of Messrs Promega. In this homogeneous test the amount of ATP remaining after the kinase reaction has been carried out is quantified by a luciferin-luciferase reaction using luminescence. The luminescence signal obtained correlates with the amount of ATP still present and thus correlates inversely with the activity of the protein kinase.
GST-Syk was diluted to 6.0 nM in the test buffer and 10 μl of this dilution were used in the kinase test (final concentration of Syk=4 nM in a total volume of 15 μl).
Positive controls are the reaction mixtures that contain no test substance; negative controls are reaction mixtures that contain no kinase.
After 60 minutes, 10 μl Kinase-Glo® solution (Promega, Cat. #V6712) (heated to ambient temperature) are added to each well and incubation is continued for a further 15 minutes at ambient temperature.
Data Evaluation and Calculation:
The output file of the “MicroBeta TRILUX” is a text file that contains the well number and measurements obtained. […] Then from this the % inherent value for the measurement of each substance concentration was calculated using an “MS-Excel—VB macro”. […] The IC50 values were calculated from the % inhibition values using “GraphPadPrism” software (Version 5) (GraphPad Software Inc.).

[1] abbreviates: 1 μM test substance, 4 nM GST-Syk.

`Cc1cc(-c2cc3ncccc3c(O[C@H]3CC[C@@H](O)CC3)n2)ccc1N(C)C` [Example 1]: the inhibition at 1 µM under setting [1] came out at 85.2%. As for `Cc1cc(-c2cc3ncccc3c(O[C@H]3CC[C@H](O)CC3)n2)ccc1N(C)C` [Example 2], the inhibition at 1 µM under setting [1] came to 71.9%. On to `Cc1cc(-c2cc3ncccc3c(N3CC[C@@H](CN)C3)n2)ccc1N(C)C` [Example 3, 5-(aminomethylpyrrolidin-1-yl)-7-(4-dimethylamino-3-methylphenyl)-[1,6]naphthyridine], for which the inhibition at 1 µM worked out at 88.2%.

Turning to `Cc1cc(-c2cc3ncccc3c(NCCc3cn[nH]c3)n2)ccc1N(C)C` [Example 6], the inhibition at 1 µM under setting [1] came to 85.2%. For the compound `Cc1cc(-c2cc3ncccc3c(-n3cc(CCO)cn3)n2)ccc1N(C)C` [Example 12, 5-(4-hydroxyethyl-pyrazolyl)-7-(4-dimetyhlamino-3-methylphenyl)-[1,6]naphthyridine], the inhibition at 1 µM was determined as 105%. Regarding `COc1nc(-c2ccc(N(C)C)c(C)c2)cc2ncccc12` [Example 17, 5-methoxy-7-(4-dimethylamino-3-methylphenyl)-[1,6]naphthyridine], the inhibition at 1 µM amounted to 73.2%. In the case of `Cc1cc(-c2cc3ncccc3c(NC3CC3)n2)ccc1N(C)C` [Example 20, 5-(cyclopropylamino)-7-(4-dimethylamino-3-methylphenyl)-[1,6]naphthyridine], the inhibition at 1 µM stood at 90.2%.
